Source: patent publication US8648066B2 (Exelixis, Inc., priority 2009, dated 2014)

Biological target: mTOR/GbL/Raptor (mTORC1) (Homo sapiens, UniProt P42345)
Experiment: mTOR/GbL/Raptor (mTORC1) ELISA assay
Type: biochemical
Conditions: phosphorylation of 4E-BP1; 0.2 nM mTORC1, 10 μM ATP; read-out: IC50 in this assay (mTORC1 ELISA)
Outline: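 Human mTORC1 (0.2 nM) phosphorylated 50 nM His-tagged 4E-BP1 with 10 µM ATP in HEPES pH 7.2 containing 10 mM MnCl2, 120 min at ambient temperature. Substrate was captured on Ni-chelate plates; phospho-4E-BP1 was detected by primary antibody and HRP secondary with luminescence.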

CC1(C)CCc2ncnc(N3CCOc4ccc(-c5cnc(OCc6ccccc6)c(NS(C)(=O)=O)c5)cc4C3)c2C1 [Example 631, N-{5-[4-(6,6-dimethyl-5,6,7,8-tetrahydroquinazolin-4-yl)-2,3,4,5-tetrahydro-1,4-benzoxazepin-7-yl]-2-[(phenylmethyl)oxy]pyridin-3-yl}methanesulfonamide]
IC50: ≥ 2000 nM

CCNc1nc2ccc(-c3ccc4c(c3)CN(c3nc(CC)nc5ccccc35)CCO4)cc2[nH]1 [Example 260, N-ethyl-6-[4-(2-ethylquinazolin-4-yl)-2,3,4,5-tetrahydro-1,4-benzoxazepin-7-yl]-1H-benzimidazol-2-amine]
IC50: 50 to 250 nM

CC1(C)CCc2ncnc(N3CCOc4ccc(-c5cnc(N)c(S(=O)(=O)NCC6CCNCC6)c5)cc4C3)c2C1 [Example 378, 2-amino-5-[4-(6,6-dimethyl-5,6,7,8-tetrahydroquinazolin-4-yl)-2,3,4,5-tetrahydro-1,4-benzoxazepin-7-yl]-N-(piperidin-4-ylmethyl)pyridine-3-sulfonamide]
IC50: 50 to 250 nM

Cc1nc2ncc(-c3ccc4c(c3)CN(c3nc(CNC5CCC5)nc5c3CC(C)(C)CC5)CCO4)cc2[nH]1 [Example 597, N-({6,6-dimethyl-4-[7-(2-methyl-1H-imidazo[4,5-b]pyridin-6-yl)-2,3-dihydro-1,4-benzoxazepin-4(5H)-yl]-5,6,7,8-tetrahydroquinazolin-2-yl}methyl)cyclobutanamine]
IC50: ≤ 10 nM

CCNc1nc2ccc(-c3ccc4c(c3)CN(c3nc(NC)nc5ccccc35)CCO4)cc2[nH]1 [Example 269, 4-{7-[2-(ethylamino)-1H-benzimidazol-6-yl]-2,3-dihydro-1,4-benzoxazepin-4(5H)-yl}-N-methylquinazolin-2-amine]
IC50: 250 to 1000 nM

Cc1nc2ccc(-c3ccc4c(c3)CN(c3ncnc(C)c3C)CCO4)cc2[nH]1 [Example 48, 4-(5,6-dimethylpyrimidin-4-yl)-7-(2-methyl-1H-benimidazol-6-yl)-2,3,4,5-tetrahydro-1,4-benzoxazepine]
IC50: 1000 to 2000 nM

COc1ccc2c(N3CCOc4ccc(-c5ccc6nc[nH]c6c5)cc4C3)nc(C)nc2c1 [Example 280, 7-(1H-benzimidazol-6-yl)-4-[2-methyl-7-(methyloxy)quinoazolin-4-yl]-2,3,4,5-tetrahydro-1,4-benzoxazepine]
IC50: 250 to 1000 nM

CC1(C)CCc2ncnc(N3CCOc4ccc(-c5cnc(N)c(S(N)(=O)=O)c5)cc4C3)c2C1 [Example 399, 2-amino-5-[4-(6,6-dimethyl-5,6,7,8-tetrahydroquinazolin-4-yl)-2,3,4,5-tetrahydro-1,4-benzoxazepin-7-yl]pyridine-3-sulfonamide]
IC50: ≤ 10 nM

Cc1nc2ncc(-c3ccc4c(c3)CN(c3ncnc5c3CCCC5(C)C)CCO4)cc2[nH]1 [Example 485, 4-(8,8-dimethyl-5,6,7,8-tetrahydroquinazolin-4-yl)-7-(2-methyl-1H-imidazo[4,5-b]pyridin-6-yl)-2,3,4,5-tetrahydro-1,4-benzoxazepine]
IC50: 10 to 50 nM

CCNc1nc2ccc(-c3ccc4c(c3)CN(c3ncnc5cc(F)ccc35)CCO4)cc2[nH]1 [Example 281, N-ethyl-6-[4-(7-fluoroquinazolin-4-yl)-2,3,4,5-tetrahydro-1,4-benzoxazepin-7-yl]-1H-benzimidazol-2-amine]
IC50: 50 to 250 nM

CC1(C)CCc2ncnc(N3CCOc4ccc(-c5cnc(N)c(S(=O)(=O)N6CCC(N)CC6)c5)cc4C3)c2C1 [Example 446, 3-[(4-aminopiperidin-1-yl)sulfonyl]-5-[4-(6,6-dimethyl-5,6,7,8-tetrahydroquinazolin-4-yl)-2,3,4,5-tetrahydro-1,4-benzoxazepin-7-yl]pyridin-2-amine]
IC50: 10 to 50 nM

CC(O)c1nc2cc(-c3ccc4c(c3)CN(c3ncnc5c3CC(C)(C)CC5)CCO4)cnc2[nH]1 (centres unmarked) [Example 252, 1-{6-[4-(6,6-dimethyl-5,6,7,8-tetrahydroquinazolin-4-yl)-2,3,4,5-tetrahydro-1,4-benzoxazepin-7-yl]-3H-imidazo[4,5-b]pyridin-2-yl}ethanol]
IC50: ≤ 10 nM

Cc1nc(C)c(C(C)C)c(N2CCOc3ccc(-c4cnc5nc(C)[nH]c5c4)cc3C2)n1 [Example 491, 4-[2,6-dimethyl-5-(1-methylethyl)pyrimidin-4-yl]-7-(2-methyl-1H-imidazo[4,5-b]pyridin-6-yl)-2,3,4,5-tetrahydro-1,4-benzoxazepine]
IC50: ≤ 10 nM

CCNc1nc2ccc(-c3ccc4c(c3)CN(c3ccnc5cc(OC)c(OC)cc35)CCO4)cc2[nH]1 [Example 261, 6-{4-[6,7-bis(methyloxy)quinolin-4-yl]-2,3,4,5-tetrahydro-1,4-benzoxazepin-7-yl}-N-ethyl-1H-benzimidazol-2-amine]
IC50: 250 to 1000 nM

c1ccc2c(N3CCOc4ccc(-c5ccc6cn[nH]c6c5)cc4C3)ccnc2c1 [Example 136, 7-(1H-indazol-6-yl)-4-quinolin-4-yl-2,3,4,5-tetrahydro-1,4-benzoxazepine]
IC50: 1000 to 2000 nM

Cc1ncnc(N2CCOc3ccc(-c4ccc(C(=O)NCC(F)F)cc4)cc3C2)c1Cc1ccc(F)cc1 [Example 174, N-(2,2-difluoroethyl)-4-(4-{5-[(4-fluorophenyl)methyl]-6-methylpyrimidin-4-yl}-2,3,4,5-tetrahydro-1,4-benzoxazepin-7-yl)benzamide]
IC50: ≤ 10 nM

Cc1nc2cc(-c3ccc4c(c3)CN(c3nc(CN(C)C)nc(C)c3Br)CCO4)ccc2[nH]1 [Example 666, 1-{5-bromo-4-methyl-6-[7-(2-methyl-1H-benzimidazol-5-yl)-2,3-dihydro-1,4-benzoxazepin-4(5H)-yl]pyrimidin-2-yl}-N,N-dimethylmethanamine]
IC50: ≥ 2000 nM

CCc1ncnc(N2CCOc3ccc(-c4ccc5nc(C)[nH]c5c4)cc3C2)c1Cc1ccccc1 [Example 70, 4-[6-ethyl-5-(phenylmethyl)pyrimidin-4-yl]-7-(2-methyl-1H-benzimidazol-6-yl)-2,3,4,5-tetrahydro-1,4-benzoxazepine]
IC50: ≤ 10 nM

Cc1nc2ccc(-c3ccc4c(c3)CN(c3ncnc(C)c3Cc3ccccc3C)CCO4)cc2[nH]1 [Example 86, 7-(2-methyl-1H-benzimidazol-6-yl)-4-{6-methyl-5-[(2-methylphenyl)methyl]pyrimidin-4-yl}-2,3,4,5-tetrahydro-1,4-benzoxazepine]
IC50: 10 to 50 nM

COc1ccc2c(N3CCOc4ccc(-c5cnc6[nH]c(C)nc6c5)cc4C3)nc(C)nc2c1 [Example 568, 7-(2-methyl-1H-imidazo[4,5-b]pyridin-6-yl)-4-[2-methyl-7-(methyloxy)quinazolin-4-yl]-2,3,4,5-tetrahydro-1,4-benzoxazepine]
IC50: 50 to 250 nM

CN(C)Cc1nc2c(c(N3CCOc4ccc(-c5cnc6nc(C7CC7)[nH]c6c5)cc4C3)n1)CC(C)(C)CC2 [Example 339, 1-{4-[7-(2-cyclopropyl-1H-imidazo[4,5-b]pyridin-6-yl)-2,3-dihydro-1,4-benzoxazepin-4(5H)-yl]-6,6-dimethyl-5,6,7,8-tetrahydroquinazolin-2-yl}-N,N-dimethylmethanamine]
IC50: ≤ 10 nM

Cc1nc2cc(-c3ccc4c(c3)CN(c3nc(CN5CCCC5)nc5c3CC(C)(C)CC5)CCO4)cnc2[nH]1 [Example 501, 4-[6,6-dimethyl-2-(pyrrolidin-1-ylmethyl)-5,6,7,8-tetrahydroquinazolin-4-yl]-7-(2-methyl-3H-imidazo[4,5-b]pyridin-6-yl)-2,3,4,5-tetrahydro-1,4-benzoxazepine]
IC50: ≤ 10 nM

CCNc1nc2ccc(-c3ccc4c(c3)CN(c3nc(C)nc5ccccc35)CCO4)cc2[nH]1 [Example 228, N-ethyl-6-[4-(2-methylquinazolin-4-yl)-2,3,4,5-tetrahydro-1,4-benzoxazepin-7-yl)-1H-benzimidazol-2-amine]
IC50: 50 to 250 nM

CCNc1nc2ccc(-c3ccc4c(c3)CN(c3ncnc5cc(OC)c(OC)cc35)CCO4)cc2[nH]1 [Example 259, 6-{4-[6,7-bis(methyloxy)quinazolin-4-yl]-2,3,4,5-tetrahydro-1,4-benzoxazepin-7-yl}-N-ethyl-1H-benzimidazol-2-amine]
IC50: 50 to 250 nM

Cc1nc2ncc(-c3ccc4c(c3)CN(c3nc(CNC5CCCC5)nc5c3CC(C)(C)CC5)CCO4)cc2[nH]1 [Example 598, N-({6,6-dimethyl-4-[7-(2-methyl-1H-imidazo[4,5-b]pyridin-6-yl)-2,3-dihydro-1,4-benzoxazepin-4(5H)-yl]-5,6,7,8-tetrahydroquinazolin-2-yl}methyl)cyclopentanamine]
IC50: ≤ 10 nM

c1ccc2c(N3CCOc4ccc(-c5ccc6nc(C7CCCCN7)[nH]c6c5)cc4C3)ccnc2c1 (centres unmarked) [Example 202, 7-(2-piperidin-2-yl-1H-benzimidazol-6-yl)-4-quinolin-4-yl-2,3,4,5-tetrahydro-1,4-benzoxazepine]
IC50: 250 to 1000 nM

C=C[C@H]1CCCc2c(ncnc2N2CCOc3ccc(-c4cnc5nc(C)[nH]c5c4)cc3C2)C1 [Example 489, 4-[(8S)-8-ethenyl-6,7,8,9-tetrahydro-5H-cyclohept[d]pyrimidin-4-yl]-7-(2-methyl-1H-imidazo[4,5-b]pyridin-6-yl)-2,3,4,5-tetrahydro-1,4-benzoxazepine]
IC50: ≤ 10 nM

CCNc1nc2ccc(-c3ccc4c(c3)CN(c3nc(C)nc5cc(OC)ccc35)CCO4)cc2[nH]1 [Example 237, N-ethyl-6-{4-[2-methyl-7-(methyloxy)quinazolin-4-yl]-2,3,4,5-tetrahydro-1,4-benzoxazepin-7-yl}-1H-benzimidazol-2-amine]
IC50: 250 to 1000 nM

Cc1nc2ccc(-c3ccc4c(c3)CN(c3nc(CNC5CC5)nc(C)c3Cc3ccc(F)cc3)CCO4)cc2[nH]1 [Example 584, N-({5-[(4-fluorophenyl)methyl]-4-methyl-6-[7-(2-methyl-1H-benzimidazol-6-yl)-2,3-dihydro-1,4-benzoxazepin-4(5H)-yl]pyrimidin-2-yl}methyl)cyclopropanamine]
IC50: ≤ 10 nM
